From patent US12539294B2, “Combination of an azetidine LPA1 receptor antagonist with pirfenidone and/or nintedanib for use in the treatment of fibrotic diseases” (Idorsia Pharmaceuticals Ltd, priority 2020, dated 2026)

What was measured:
human LPA1 receptor = target: T1, human LPA1 receptor (Homo sapiens, UniProt Q92633); test: Beta-arrestin recruitment assay (Tango EDG2-bla U2OS cells) to determine IC50 values for human LPAR1; format: cell-based; conditions: antagonist mode, LPA 18:1 500 nM final; geomean where multiple values
T1 construct: TEV protease site; Gal4-VP16 transcription factor; host or cells: Tango EDG2-bla U2OS cells
Text: Biological Assays Beta-Arrestin Recruitment Assay to Determine IC50 values for human LPAR1
The Tango™ EDG2-bla U2OS cells are obtained from Invitrogen. These cells contain the human LPA1 receptor cDNA linked to a TEV protease site and a Gal4-VP16 transcription factor integrated into the Tango™ GPCR-bla U2OS parental cell line. This parental cell line stably expresses a beta-arrestin/TEV protease fusion protein and the beta-lactamase (bla) reporter gene under the control of a UAS response element. Upon LPA (agonist) binding, LPA1 receptor gets activated, leading to arrestin-protease recruitment and proteolytic release of the transcription factor: The transcription factor then regulates transcription of a beta-lactamase reporter construct, which is measured upon addition of the live-cell substrate.
10'000 Tango™ EDG2-bla U2OS cells are seeded in a 384-well black with clear bottom plate in 30 μl Freestyle 293 Expression Medium (Invitrogen) and incubated for 20 h at 37° C., 5% CO2. For antagonist assays, 5 μl of test compound (dilution series in DMSO/Freestyle 293 Expression medium/0.1% fatty acid free BSA (Sigma)) or buffer control are added per well and incubated for 30 min at 37° C., 5% CO2. 5 μl of LPA 18:1 (500 nM final) (solution in Freestyle 293 Expression medium/0.1% fatty acid free BSA (Sigma)) are added per well and the plate incubated for 16 h at 37° C., 5% CO2. Cells are then loaded with LiveBLAzer-FRET™ B/G Substrate (Invitrogen) for 2 h in the dark and the fluorescence emission at 460 nm and 530 nm is measured using the SynergyMx reader (BioTek). Following the background subtraction from both channels, the 460/530 nm emission ratio for each well is calculated, then plotted and fitted to a 4-parameter logistic function to obtain IC50 values. IC50 is the concentration of antagonist inhibiting 50% of the maximal response.
Where multiple values were measured, geomean values are given.

[1] = cited from earlier work
[2] = tested on: LPA-induced vascular leakage; test: mouse LPA-induced skin vascular leakage model; format: in vivo; conditions: oral administration of 30 mg/kg to mice
Method: The in vivo potency of the compounds of Formula (I) can be determined using a mouse LPA-induced skin vascular leakage model. Female Balb/c mice are treated with either vehicle or test compound (p.o.) for at least 1 h prior to administration of the albumin marker Evans blue (50 mg/kg, i.v., 0.9% NaCl) and subsequent challenge with LPA (5 μg, i.d.). After 30 minutes, mice are sacrificed by CO2 inhalation. Discs of skin from the injection sites are removed, digested in formamide (500 μl, 37° C., 24 hrs) and the content of Evans blue quantified by colorimetric assay. Results are expressed as extravasated Evans blue per skin disc (μg/disc).
As an example, selected compound of the present invention, Ex 5-2, is able to effectively reduce LPA-induced vascular leakage after oral administration of 30 mg/kg to mice as compared to a group of animals treated with vehicle only. Reduction of vascular leakage compared to vehicle group was ≥60%.

[3] = cited from earlier work; remark: listed apart in the source
NHLF = test: TGFβ-induced αSMA expression in human fibroblasts, combination with nintedanib; format: cell-based; conditions: 1 μM nintedanib, TGFβ 5 ng/ml, 48 h
Method: Combination Efficacy Experiment: TGFβ-Induced αSMA Expression in Human Fibroblasts:
NHLF were obtained from Lonza. 10'000 cells were seeded in 24-well plates in 300 μl FGM™ and incubated for 20 hours at 37° C., 5% CO2. The medium was changed for 300 μl FBM™ supplemented with 0.1% fatty acid free BSA (Sigma) and the plate incubated for 20 hours at 37° C., 5% CO2. 100 μl of the respective COMPOUND, nintedanib or their combination (solution in FBM™/0.1% fatty acid free BSA) were added per well and incubated for 30 minutes, followed by addition of 100 μl of TGFβ (5 ng/ml final) (solution in FBM™/0.1% fatty acid free BSA) and incubation for 48 h at 37° C., 5% CO2. […] Samples were resolved by SDS-PAGE on 4-12% Novex Bis-Tris precast gels (Thermo Fischer Scientific) and analyzed by western blot using αSMA (Sigma) and HRP-coupled secondary antibodies.
Membranes were treated with Western Lighting Enhanced Chemiluminescence Substrate (Perkin Elmer) and the chemiluminescence signal was recorded by the reader Fusion FX6 (Viber Lourmat). Signals were quantified using densitometric analysis in Fusion software. % of inhibition of TGFβ-induced αSMA expression was calculated for each COMPOUND, nintedanib and their combination. Additive effect was calculated by adding the values of % of inhibition by COMPOUND alone and nintedanib alone and expressed as “expected combo inhibition”. […]

[4] = tested on: primary human lung (myo)fibroblasts; conditions: cited from earlier work; for fibroblast to myofibroblast differentiation and/or pro-fibrotic activity of (myo)fibroblasts: primary human lung (myo)fibroblasts, various conditions
[5] = tested on: Normal Human Lung Fibroblasts (NHLF); test: TGFβ-induced αSMA expression in human fibroblasts, combination with pirfenidone; format: cell-based
Method: The anti-fibrotic effect of the respective Example COMPOUND A-C or Reference COMPOUND D (BMS-986020) and pirfenidone alone or in combination can be determined in vitro in the assay of TGFβ-induced myofibroblast differentiation.
Combination Efficacy Experiment: Transforming Growth Factor Beta (TGFβ)-Induced α-Smooth Muscle Actin (αSMA) Expression in Human Fibroblasts:
Normal Human Lung Fibroblasts (NHLF) were obtained from Lonza. 10'000 cells were seeded in 24-well plates in 300 μl Fibroblast Growth Medium-2 (FGM™-2, Lonza) and incubated for 20 hours at 37° C., 5% CO2. […] Samples were resolved by SDS-PAGE on 4-12% Novex Bis-Tris precast gels (Thermo Fischer Scientific) and analyzed by western blot using αSMA (Sigma) and HRP-coupled secondary antibodies. Membranes were treated with Western Lighting Enhanced Chemiluminescence Substrate (Perkin Elmer) and the chemiluminescence signal was recorded by the reader Fusion FX6 (Viber Lourmat). Signals were quantified using densitometric analysis in Fusion software. % of inhibition of TGFβ-induced αSMA expression was calculated for each COMPOUND, pirfenidone and their combination. Additive effect was calculated by adding the values of % of inhibition by COMPOUND alone and pirfenidone alone and expressed as “expected combo inhibition”. Measured % of inhibition by COMPOUND and pirfenidone combination was expressed as “measured combo inhibition”. […]

[6] = cited from earlier work; remark: listed apart in the source

T1 sequence (Q92633 whole entry, the tested form may be a part): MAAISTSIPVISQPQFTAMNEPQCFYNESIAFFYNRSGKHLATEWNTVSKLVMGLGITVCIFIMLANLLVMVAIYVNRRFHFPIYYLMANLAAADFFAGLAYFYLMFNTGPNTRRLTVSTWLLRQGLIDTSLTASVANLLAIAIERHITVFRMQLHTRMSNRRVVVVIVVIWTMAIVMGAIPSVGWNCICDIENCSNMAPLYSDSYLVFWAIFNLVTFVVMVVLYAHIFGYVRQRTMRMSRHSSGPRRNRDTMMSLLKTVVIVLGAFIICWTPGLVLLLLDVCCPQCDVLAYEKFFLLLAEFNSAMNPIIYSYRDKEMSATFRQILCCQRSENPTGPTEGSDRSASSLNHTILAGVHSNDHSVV

## 4-(3-((6-chloro-4-ethoxypyridin-3-yl)carbamoyl)-3-(2-isopropylphenyl)azetidin-1-yl)-2,2-dimethyl-4-oxobutanoic acid [Example 4-5]
Human LPA1 receptor
  IC50: 12 nM

## Cc1noc(-c2ccc(-c3ccc(C4(C(=O)O)CC4)cc3)cc2)c1NC(=O)O[C@H](C)c1ccccc1 [BMS-986020]
[1]; IPF patients, b.i.d.
  rate of decline in forced vital capacity (FVC) versus placebo: significantly slower rate of decline
[1]; both BMS-986020 treatment groups
  hepatic enzymes: Dose-related elevations
[1]; study terminated early
  cases of cholecystitis determined to be related to treatment: three cases of cholecystitis

## CCOc1cc(Cl)ncc1NC(=O)C1(c2ccccc2C(C)C)CN(CCC(C)(C)C(=O)O)C1 [Example 2-4, 4-(3-((6-chloro-4-ethoxypyridin-3-yl)carbamoyl)-3-(2-isopropylphenyl)azetidin-1-yl)-2,2-dimethylbutanoic acid]
Human LPA1 receptor
  IC50: 20 nM

## Cc1ccc(NC(=O)C2(c3ccccc3C(C)C)CN(CCCC(C)(C)C(=O)O)C2)c(OC(F)F)n1 [Example 3-1, 5-(3-((2-(difluoromethoxy)-6-methylpyridin-3-yl)carbamoyl)-3-(2-isopropylphenyl)azetidin-1-yl)-2,2-dimethylpentanoic acid]
Human LPA1 receptor
  IC50: 13 nM

## COc1cc(Cl)ncc1NC(=O)C1(c2ccccc2C(C)C)CN(C(=O)CC(C)(C)C(=O)O)C1 [Example 4-2, 4-(3-((6-chloro-4-methoxypyridin-3-yl)carbamoyl)-3-(2-isopropylphenyl)azetidin-1-yl)-2,2-dimethyl-4-oxobutanoic acid]
Human LPA1 receptor
  IC50: 79 nM

## COc1cc(F)ncc1NC(=O)C1(c2ccccc2C(C)C)CN(S(N)(=O)=O)C1 [Example 5-1, N-(6-fluoro-4-methoxypyridin-3-yl)-3-(2-isopropylphenyl)-1-sulfamoylazetidine-3-carboxamide]
Human LPA1 receptor
  IC50: 19 nM

## COc1cc(Cl)ncc1NC(=O)C1(c2ccccc2C(C)C)CN(S(N)(=O)=O)C1 [Example 5-2, N-(6-chloro-4-methoxypyridin-3-yl)-3-(2-isopropylphenyl)-1-sulfamoylazetidine-3-carboxamide]
[2]
  Reduction of vascular leakage compared to vehicle group: ≥ 60%

## CCOc1cc(Cl)ncc1NC(=O)C1(c2ccccc2C(C)C)CN(S(N)(=O)=O)C1 [Example 5-3, N-(6-chloro-4-ethoxypyridin-3-yl)-3-(2-isopropylphenyl)-1-sulfamoylazetidine-3-carboxamide]
Human LPA1 receptor
  IC50: 3 nM

## Cc1ccc(NC(=O)C2(c3ccccc3C(C)C)CN(S(N)(=O)=O)C2)c(OC(F)F)n1 [Example 5-7, N-(2-(difluoromethoxy)-6-methylpyridin-3-yl)-3-(2-isopropylphenyl)-1-sulfamoylazetidine-3-carboxamide]
Human LPA1 receptor
  IC50: 2 nM

## COc1nc(C)ccc1NC(=O)C1(c2ccccc2C(C)C)CN(S(N)(=O)=O)C1 [Example 5-8, 3-(2-isopropylphenyl)-N-(2-methoxy-6-methylpyridin-3-yl)-1-sulfamoylazetidine-3-carboxamide]
Human LPA1 receptor
  IC50: 51 nM

## Cc1ccc(NC(=O)C2(c3ccccc3C(C)C)CN(S(N)(=O)=O)C2)c(OC(C)C)n1 [Example 5-10, N-(2-isopropoxy-6-methylpyridin-3-yl)-3-(2-isopropylphenyl)-1-sulfamoylazetidine-3-carboxamide]
Human LPA1 receptor
  IC50: 14 nM

## CCS(=O)(=O)O.COC(=O)c1ccc2c(c1)NC(=O)/C2=C(\Nc1ccc(N(C)C(=O)CN2CCN(C)CC2)cc1)c1ccccc1 [nintedanib, (3Z)-2,3-dihydro-3-[[[4-[methyl-[(4-methyl-1-piperazinyl)-acetyl]-amino]-phenyl]-amino]-phenylmethylene]-2-oxo-1H-indole-6-carboxylic acid methyl ester ethanesulfonate]
[3]; clinical and postmarketing
  elevated liver enzymes and drug-induced liver injury: ALT, AST, and bilirubin elevations have occurred
[3]; two phase III trials, over one year
  reduction of the decline in lung function: approximately 50%
NHLF
  inhibition of TGFβ-induced αSMA expression, nintedanib alone: minimally inhibited
[4]
  fibroblast to myofibroblast differentiation and/or pro-fibrotic activity of (myo)fibroblasts: attenuated, but usually did not fully inhibit

## Cc1ccc(=O)n(-c2ccccc2)c1 [pirfenidone, 5-methyl-1-phenyl-2-(1H)-pyridone]
[5]; 2 mM pirfenidone, TGFβ 5 ng/ml, 48 h
  inhibition of TGFβ-induced αSMA expression, pirfenidone alone: minimally inhibited
[5]; presence of 10 nM, 100 nM and 1000 nM COMPOUND A versus absence (FIG. 5)
  pirfenidone potency (IC50) on TGFβ-induced αSMA expression when combined with COMPOUND A: gains in potency
[4]; in vitro
  concentrations used to observe significant effects in vitro: > 0.5 mM
[4]
  fibroblast to myofibroblast differentiation and/or pro-fibrotic activity of (myo)fibroblasts: attenuated, but usually did not fully inhibit
[6]; 2403 mg/day group
  patients requiring dosage reduction or interruption for gastrointestinal events: 18.5%
  patients who discontinued treatment due to a gastrointestinal event: 2.2%
  patients with elevations ≥10×ULN in ALT or AST: 0.3%
[6]; 2403 mg/day, three Phase 3 trials
  incidence of elevations in ALT or AST ≥3× upper limit of normal (ULN): 3.7%
[6]; clinical and postmarketing
  drug-induced liver injury (DILI): Cases of drug-induced liver injury (DILI) have been observed
